Test results taken from article PMC7078782 (Drug Design, Development and Therapy, 2020).

Tests used:
[1] = Stock solution stability; assay type: physicochemical; conditions: under the experimental conditions
[2] = Stability of QC samples in beagle plasma; assay type: in vitro ADME; conditions: under the experimental conditions (room temperature, autosampler, freeze-thaw, −20°C)
[3] = cats; cited from earlier work
[4] = Pharmacokinetic study in beagles after intramuscular injection of parecoxib; conditions: beagle, dog, plasma, im, 1.33 mg/kg, after intramuscular injection of 1.33 mg/kg parecoxib, n=6, mean ± SD
[5] = liver; cited from earlier work

Row | Structure (SMILES) | Stock solution stability (in words) [1] | Stability in beagle plasma (in words) [2] | t1/2 of conversion to valdecoxib and propionic acid [3] | Tmax ([4]; Tmax, beagle plasma) [h] | half-life ([4]; t1/2, beagle plasma) [h] | Share of elimination by sulfonamide glucose hydroformylation [5]
1 | Cc1ccc(-c2cc(C(F)(F)F)nn2-c2ccc(S(N)(=O)=O)cc2)cc1 [IS, Celecoxib] | stabilized |  |  |  |  | 
2 | CCC(=O)NS(=O)(=O)c1ccc(-c2c(-c3ccccc3)noc2C)cc1 [Parecoxib] | stabilized | stable | about 24 mins |  |  | 
3 | Cc1onc(-c2ccccc2)c1-c1ccc(S(N)(=O)=O)cc1 [Valdecoxib] | stabilized | stable |  | ~1.36 | ~2.27 | about 20%
